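Growth conditions: 96-well plates. Treatment: test compound, 48 hours, 5 concentrations. Analysis: linear interpolation between bracketing concentrations; unreached endpoints set to highest concentration. At the GI50, growth is halved.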 Activity calls are given as the source filed them. No stated cut-off is given here; in the data, active = GI50 up to about 1.1 µM and inactive = higher.
Columns and labels:
Test in all cases: inhibition of tumour cell growth, NCI panel, 48 h
M14 = tested on: M14
A498 = tested on: A498
Malme-3M = tested on: Malme-3M
CCRF-CEM = tested on: CCRF-CEM
COLO 205 = tested on: COLO 205
HCT-116 = tested on: HCT-116
TK-10 = tested on: TK-10
OVCAR-5 = tested on: OVCAR-5
IGROV-1 = tested on: IGROV-1
UO-31 = tested on: UO-31
OVCAR-8 = tested on: OVCAR-8
SNB-19 = tested on: SNB-19
HOP-62 = tested on: HOP-62
NCI-H460 = tested on: NCI-H460
SK-OV-3 = tested on: SK-OV-3
SF-539 = tested on: SF-539
SF-268 = tested on: SF-268
A549 = tested on: A549
XF498 = tested on: XF498
DMS-273 = tested on: DMS-273

Row | SMILES | GI50 (M14) | GI50 (A498) | GI50 (Malme-3M) | GI50 (CCRF-CEM) | GI50 (COLO 205) | GI50 (HCT-116) | GI50 (TK-10) | GI50 (OVCAR-5) | GI50 (IGROV-1) | GI50 (UO-31) | GI50 (OVCAR-8) | GI50 (SNB-19) | GI50 (HOP-62) | GI50 (NCI-H460) | GI50 (SK-OV-3) | GI50 (SF-539) | GI50 (SF-268) | GI50 (A549) | GI50 (XF498) | GI50 (DMS-273)
1 | O=C(N/N=C\c1cccc2ccccc12)Nc1ccccc1 | > 100 µM (inactive) | > 100 µM (inactive) | > 100 µM (inactive) | > 100 µM (inactive) | > 100 µM (inactive) | > 100 µM (inactive) | > 100 µM (inactive) | > 100 µM (inactive) | > 100 µM (inactive) | > 100 µM (inactive) | > 100 µM (inactive) | > 100 µM (inactive) | > 100 µM (inactive) | > 100 µM (inactive) | > 100 µM (inactive) | – | – | – | – | –
2 | COc1ccc(N2CN(C)CSC2=S)cc1 | 38.5 µM (inactive) | > 100 µM (inactive) | > 100 µM (inactive) | 13.1 µM (inactive) | > 100 µM (inactive) | 71.3 µM (inactive) | > 100 µM (inactive) | 71.9 µM (inactive) | 77.6 µM (inactive) | > 100 µM (inactive) | > 100 µM (inactive) | > 100 µM (inactive) | 25.9 µM (inactive) | 76 µM (inactive) | 27.1 µM (inactive) | > 100 µM (inactive) | 97.9 µM (inactive) | > 100 µM (inactive) | – | –
3 | CCCCCCCCCOCC(COP(=O)([O-])OCC[N+](C)(C)C)OC (configuration not stated) | – | > 100 µM (inactive) | > 100 µM (inactive) | > 100 µM (inactive) | > 100 µM (inactive) | > 100 µM (inactive) | – | > 100 µM (inactive) | > 65.6 µM (inactive) | > 100 µM (inactive) | > 100 µM (inactive) | > 100 µM (inactive) | > 100 µM (inactive) | > 100 µM (inactive) | > 100 µM (inactive) | > 100 µM (inactive) | > 100 µM (inactive) | > 100 µM (inactive) | > 100 µM (inactive) | > 100 µM (inactive)
4 | COC(=O)Cc1c(-c2c(CC(=O)OC)c3ccccc3n2C2OC(COC(C)=O)C(OC(C)=O)C(OC(C)=O)C2OC(C)=O)[nH]c2ccccc12 (configuration not stated) | > 100 µM (inactive) | 52.4 µM (inactive) | > 100 µM (inactive) | > 100 µM (inactive) | > 100 µM (inactive) | > 100 µM (inactive) | > 100 µM (inactive) | > 100 µM (inactive) | 74.6 µM (inactive) | > 100 µM (inactive) | – | > 100 µM (inactive) | > 100 µM (inactive) | > 100 µM (inactive) | > 100 µM (inactive) | – | > 100 µM (inactive) | > 100 µM (inactive) | – | –
5 | CC(=O)Nc1ccc2[nH]c(C(=O)N3CC(CCl)c4c3cc(N)c3ccccc43)cc2c1 (configuration not stated) | 0.0167 µM (active) | 0.0176 µM (active) | < 0.01 µM (active) | < 0.01 µM (active) | 0.0139 µM (active) | 0.0137 µM (active) | < 0.0157 µM (active) | < 0.0179 µM (active) | 0.0143 µM (active) | 0.014 µM (active) | < 0.0133 µM (active) | < 0.0217 µM (active) | < 0.0152 µM (active) | < 0.01 µM (active) | 0.0174 µM (active) | 0.0129 µM (active) | < 0.01 µM (active) | 0.0128 µM (active) | – | –
6 | NS(=O)(=O)C1CCCCC1C(=O)NNC(=O)C(=O)Nc1nnc(S)[nH]1 (configuration not stated) | > 100 µM (inactive) | > 100 µM (inactive) | – | > 100 µM (inactive) | > 100 µM (inactive) | > 100 µM (inactive) | > 100 µM (inactive) | > 100 µM (inactive) | > 100 µM (inactive) | > 100 µM (inactive) | > 100 µM (inactive) | > 100 µM (inactive) | > 100 µM (inactive) | > 100 µM (inactive) | > 100 µM (inactive) | > 100 µM (inactive) | > 100 µM (inactive) | > 100 µM (inactive) | > 100 µM (inactive) | > 100 µM (inactive)
7 | Cc1ccc2c(=O)c3ccccc3sc2c1 | > 100 µM (inactive) | – | > 100 µM (inactive) | > 100 µM (inactive) | > 100 µM (inactive) | > 100 µM (inactive) | > 100 µM (inactive) | > 100 µM (inactive) | > 100 µM (inactive) | > 100 µM (inactive) | > 100 µM (inactive) | 66.4 µM (inactive) | > 100 µM (inactive) | > 100 µM (inactive) | > 100 µM (inactive) | > 100 µM (inactive) | > 100 µM (inactive) | > 100 µM (inactive) | – | > 100 µM (inactive)

From ChEMBL document CHEMBL1201862, “PubChem BioAssay data set” (2004)
